Results on seven compounds are retold here after patent EP3875080B1, “DOSAGE FORM PROVIDING PROLONGED RELEASE OF […] SALT” (priority 2020, dated 2021).

Counter-ions that a name gives are not always drawn. Like-named read-outs stand apart in the source and are kept apart here.

The term solubility (thermodynamic) denotes solubility found after equilibrating the solid with the medium.

For data set [1] the following is noted: in vivo, cited from earlier work.
Data set [2] can be described thus: intrinsic dissolution (dissolution rate), Wood's apparatus. It is filed as physicochemical. The method, then:
100 mg of Tapentadol, either in form of the hydrochloride salt or the dihydrogenphosphate salt (mixed form [batch with fine particles], pure hemihydrate or pure anhydrate) were compressed at a compressing force of 200 kg (gravitational) for 1 minute at a surface of 0.5 cm^2. The thus obtained compressed samples were investigated for their dissolution rate in a Wood's apparatus at 37 °C in 900 mL of dissolution medium at different pH values and a rotational speed of the paddle of 50 rpm.

Data set [3] in a line: in vitro dissolution of Tapentadol from tablets, paddle apparatus Ph. Eur. The format is physicochemical. Particulars: for ethanol induced dose dumping: 0.1 N HCl (pH 1.0) containing 40 vol.-% ethanol compared to pH 1.0. The method, then:
The in vitro dissolution of Tapentadol from the tablets (drug load 250 mg, C-1, I-1 and I-3) was measured in a paddle apparatus in accordance with Ph. Eur., equipped with sinker, at a rotational speed of 50 rpm at 37 °C in 900 ml of different dissolution media having different pH values. The experimental results are compiled in the table here below:
The in vitro dissolution of Tapentadol from the tablets (drug load 250 mg, I-4) was measured in a paddle apparatus in accordance with Ph. Eur., equipped with sinker, at a rotational speed of 50 rpm at 37 °C in 900 ml of 0.1 N HCl without ethanol (pH 1.0) and in 0.1 N HCl with 40 vol.-% ethanol (pH 1.0).

Data set [4] in a line: thermodynamic solubility (saturation solubility). It is filed as physicochemical. Particulars: for solubility thermodynamic at 24 h: thermodynamic from solid, read-out: thermodynamic solubility, assay expressed as base. On the procedure: The thermodynamic solubility of Tapentadol hydrochloride and of Tapentadol dihydrogen-phosphate (mixed form, batch with fine particles) was determined as saturation solubility in various media at various pH values. The solutions were stirred for 24 hours at 25 °C and the pH values of the solutions at the start and at the end of the experiments were measured. The dissolved amount of Tapentadol was quantified by HPLC (free base of Tapentadol).

In the case of `COc1ccc2c3c1O[C@H]1C(=O)CC[C@H]4[C@@H](C2)N(C)CC[C@]314` [Hydrocodone], in data set [1], the “Maximum individual Cmax ratio with 40% alcohol” value is recorded as 3.9 and the “mean increase in Cmax ratio relative to drug co-ingested with 0% alcohol” value is on record as 2.3.
In the case of `CN1CC[C@]23c4c5ccc(O)c4O[C@H]2C(=O)CC[C@@]3(O)[C@H]1C5` [Oxymorphone], in data set [1], the “Maximum individual Cmax ratio with 40% alcohol” value is listed as 2.70 and the “mean increase in Cmax ratio relative to drug co-ingested with 0% alcohol” value is 1.70.
With `CC[C@@H](c1cccc(O)c1)[C@@H](C)CN(C)C.O=P(O)(O)O` [Tapentadol dihydrogenphosphate anhydrate], the “intrinsic dissolution (dissolution rate)” value in data set [2] (pH 1.2, 0 min) turned out to be 0%; in data set [2] (pH 1.2, 1 min), 15%; in data set [2] (pH 1.2, 3 min), 37%; in data set [2] (pH 1.2, 5 min) it was 57%; in data set [2] (pH 1.2, 7 min) it was 75%; in data set [2] (pH 1.2, 9 min), 85%. In addition, the “intrinsic dissolution (dissolution rate)” value in data set [2] (pH 6.8, 0 min) was 0%; in data set [2] (pH 6.8, 1 min), 13%; in data set [2] (pH 6.8, 3 min), 36%; in data set [2] (pH 6.8, 5 min), 66%; in data set [2] (pH 6.8, 7 min) it was 90%; in data set [2] (pH 6.8, 9 min) it was 96%.
`CC[C@@H](c1cccc(O)c1)[C@@H](C)CN(C)C.CC[C@@H](c1cccc(O)c1)[C@@H](C)CN(C)C.O.O=P(O)(O)O.O=P(O)(O)O` [Tapentadol dihydrogenphosphate hemihydrate]: the “intrinsic dissolution (dissolution rate)” value in data set [2] (pH 1.2, 0 min) was found to be 0%; in data set [2] (pH 1.2, 1 min), 14%; in data set [2] (pH 1.2, 3 min), 37%; in data set [2] (pH 1.2, 5 min), 54%; in data set [2] (pH 1.2, 7 min), 72%; in data set [2] (pH 1.2, 9 min), 84%. Further, the “intrinsic dissolution (dissolution rate)” value came out at 0% in data set [2] (pH 6.8, 0 min); 12% in data set [2] (pH 6.8, 1 min); 36% in data set [2] (pH 6.8, 3 min); 66% in data set [2] (pH 6.8, 5 min); 80% in data set [2] (pH 6.8, 7 min); 83% in data set [2] (pH 6.8, 9 min).
On to `CC[C@@H](c1cccc(O)c1)[C@@H](C)CN(C)C` [Tapentadol hydrochloride, reference compound], for which the “ethanol induced dose dumping” value in data set [3] is “no ethanol induced dose dumping”. For the same compound, the “intrinsic dissolution (dissolution rate)” value was 0% in data set [2] (pH 1.0, 0 min); 52% in data set [2] (pH 1.0, 1 min); 95% in data set [2] (pH 1.0, 3 min); 99% in data set [2] (pH 1.0, 5 min); 99% in data set [2] (pH 1.0, 7 min); 99% in data set [2] (pH 1.0, 9 min). Also, the “intrinsic dissolution (dissolution rate)” value was 0% in data set [2] (pH 4.5, 0 min); 60% in data set [2] (pH 4.5, 1 min); 91% in data set [2] (pH 4.5, 3 min); 95% in data set [2] (pH 4.5, 5 min); 95% in data set [2] (pH 4.5, 7 min); 96% in data set [2] (pH 4.5, 9 min). In addition, the “intrinsic dissolution (dissolution rate)” value worked out at 0% in data set [2] (pH 6.8, 0 min); 38% in data set [2] (pH 6.8, 1 min); 79% in data set [2] (pH 6.8, 3 min); 92% in data set [2] (pH 6.8, 5 min); 94% in data set [2] (pH 6.8, 7 min); 94% in data set [2] (pH 6.8, 9 min). Besides, the “intrinsic dissolution (dissolution rate)” value in data set [2] (pH 7.4, 0 min) is recorded as 0%; in data set [2] (pH 7.4, 1 min), 27%; in data set [2] (pH 7.4, 3 min), 65%; in data set [2] (pH 7.4, 5 min) it was 80%; in data set [2] (pH 7.4, 7 min), 89%; in data set [2] (pH 7.4, 9 min), 92%. In addition, the pH end in data set [4] (0.1 M HCl, pH start 1.11) is given as 0.83; in data set [4] (0.15N NaOH, pH start 13.08), 8.21; in data set [4] (SIF sp pH 6.8, pH start 6.82) it was 6.23; in data set [4] (acetate pH 4.5, pH start 4.54) it was 4.29; in data set [4] (citrate pH 6.8, pH start 6.83), 6.17; in data set [4] (citrate pH 7.4, pH start 7.39), 6.33. The same compound yielded a pH end in data set [4] (water) of 4.63. Moreover, the solubility (thermodynamic) at 24 h was found to be 312 mg/mL in data set [4] (pH 1.11, aqueous buffer, 0.1 M HCl, pH start 1.11, 24 hours at 25 °C) and 66 mg/mL in data set [4] (pH 13.08, aqueous buffer, 0.15N NaOH, pH start 13.08, 24 hours at 25 °C).
Take `CC[C@@H](c1cccc(O)c1)[C@@H](C)CN(C)C` [Tapentadol, (-)-(1R,2R)-3-(3-dimethylamino-1-ethyl-2-methyl-propyl)-phenol]: the “Maximum individual Cmax ratio with 40% alcohol” value in data set [1] (100 mg) is listed as 4.38; in data set [1] (250 mg), 2.67. Moreover, the entries for the “mean increase in Cmax ratio relative to drug co-ingested with 0% alcohol” value in data set [1] (100 mg) and in data set [1] (250 mg) were 1.48 and 1.28, respectively.
For Tapentadol dihydrogenphosphate, the “ethanol induced dose dumping” value in data set [3] is reported as “no ethanol induced dose dumping”. Moreover, in data set [3] (0.1 N HCl (pH 1.0) containing 40 vol.-% ethanol, same excipients in same amounts), the “additional retardant effect in aqueous ethanol compared to Tapentadol hydrochloride” value is recorded as “significantly stronger”. The “time difference to a release of 70% compared to Tapentadol hydrochloride” value in data set [3] (pH 4.5, aqueous buffer without ethanol) is reported as “more than one”. The “dissolution rate compared with Tapentadol hydrochloride” value in data set [2] (at all tested pH values) was “significantly slower dissolution rate”. For the same compound, the “intrinsic dissolution (dissolution rate)” value in data set [2] (pH 1.0, 0 min) was 0%; in data set [2] (pH 1.0, 1 min), 14%; in data set [2] (pH 1.0, 3 min), 35%; in data set [2] (pH 1.0, 5 min) it was 56%; in data set [2] (pH 1.0, 7 min) it was 78%; in data set [2] (pH 1.0, 9 min), 84%. Further, the “intrinsic dissolution (dissolution rate)” value turned out to be 0% in data set [2] (pH 4.5, 0 min); 12% in data set [2] (pH 4.5, 1 min); 30% in data set [2] (pH 4.5, 3 min); 49% in data set [2] (pH 4.5, 5 min); 73% in data set [2] (pH 4.5, 7 min); 86% in data set [2] (pH 4.5, 9 min). In addition, the “intrinsic dissolution (dissolution rate)” value is listed as 0% in data set [2] (pH 6.8, 0 min); 11% in data set [2] (pH 6.8, 1 min); 29% in data set [2] (pH 6.8, 3 min); 48% in data set [2] (pH 6.8, 5 min); 66% in data set [2] (pH 6.8, 7 min); 77% in data set [2] (pH 6.8, 9 min). Further, the “intrinsic dissolution (dissolution rate)” value worked out at 0% in data set [2] (pH 7.4, 0 min); 12% in data set [2] (pH 7.4, 1 min); 30% in data set [2] (pH 7.4, 3 min); 46% in data set [2] (pH 7.4, 5 min); 63% in data set [2] (pH 7.4, 7 min); 78% in data set [2] (pH 7.4, 9 min). The pH end in data set [4] (0.1 M HCl, pH start 1.11) worked out at 2.55; in data set [4] (0.15N NaOH, pH start 13.08) it was 8.09; in data set [4] (SIF sp pH 6.8, pH start 6.82), 2.81; in data set [4] (acetate pH 4.5, pH start 4.54), 2.81; in data set [4] (citrate pH 6.8, pH start 6.83) it was 3.15; in data set [4] (citrate pH 7.4, pH start 7.39), 3.16. Besides, in data set [4] (water), the pH end turned out to be 2.75. Further, the “thermodynamic solubility, assay expressed as base” value in data set [4] (0.1 M HCl, pH start 1.11, 24 hours at 25 °C) came out at 24.3 g/100 mL; in data set [4] (0.15N NaOH, pH start 13.08, 24 hours at 25 °C) it was 6.5 g/100 mL; in data set [4] (SIF sp pH 6.8, pH start 6.82, 24 hours at 25 °C), 20.2 g/100 mL; in data set [4] (acetate pH 4.5, pH start 4.54, 24 hours at 25 °C), 21.2 g/100 mL; in data set [4] (citrate pH 6.8, pH start 6.83, 24 hours at 25 °C) it was 19.3 g/100 mL; in data set [4] (citrate pH 7.4, pH start 7.39, 24 hours at 25 °C), 19.0 g/100 mL. Moreover, the “thermodynamic solubility, assay expressed as base” value in data set [4] (water, 24 hours at 25 °C) worked out at 21.4 g/100 mL. Also, the “thermodynamic solubility compared with Tapentadol hydrochloride” value in data set [4] (under all tested conditions) is reported as “below that of Tapentadol hydrochloride”.
